In patent publication US11993603B2, “Preparation for 6-amino-1H-pyrazolo[3,4-d]pyrimidine-based JAK kinase inhibitor and application thereof” (INSTITUTE OF MATERIA MEDICA, CHINESE ACADEMY OF MEDICAL …, priority 2018, dated 2024) one finds IC50 data, which are given here for five compounds.

Each structure is given as a SMILES string.

For orientation: IC50 means the concentration needed to halve the response being measured.

What all share (type): biochemical
In one test the target is JAK-1 (Homo sapiens (Human), UniProt P23458). The experiment in a line: Inhibition test on JAK-1 kinase (FRET peptide substrate assay). To be noted: kinase 1 nM, 1 h at room temperature. An excerpt:
(§1) Experiment Example (Inhibition Tests on JAK-1, JAK-2 and JAK-3 Kinases)
(§2) To evaluate the inhibitory activity of the compound on JAK-1, JAK-2 and JAK-3 kinases
(§3) A proteolytic enzyme is coupled to exert different proteolysis on a specific phosphorylated and nonphosphorylated peptide substrate based on fluorescence resonance energy transfer (FRET). Both ends of the peptide substrate were respectively labeled FRET energy donor coumarin and energy receptor fluorescein, and at this time, the donor was stimulated to produce energy transfer when the donor is close to a receptor.
(§4) In Kinase Reaction, JAK-1, JAK-2 or JAK-3 may transfer γ-phosphoric acid in ATP onto a single tyrosine residue of a peptide substrate; and there were JAK-1, JAK-2 or JAK-3 inhibitors in the system, γ-phosphoric acid groups on ATP would be not transferred onto the peptide substrate, thus resulting in the failure of phosphorylation. An evaluation experiment was designed based on the principle, a peptide substrate was designed with kinase phosphorylation sites, namely, protein restriction enzyme cutting sites; and both ends thereof were respectively connected with 2 fluorophores as a donor and a receptor respectively; if the kinase kept activity in the system, a γ-phosphonic acid group was transferred onto restriction enzyme cutting sites of the substrate, so that the γ-phosphonic acid group would not be cut and separated into two segments by a protease; moreover, under the stimulation of a laser having a specific wavelength, energy from a segment of fluorescence would be transferred onto another end of fluorophores, thus emitting energy. Otherwise, after kinase activity was inhibited, phosphoric acid groups would be not transferred, and restriction enzyme cutting sites in the substrate would be cut by a […] in the system to separate the substrate into two segments, thereby no energy transfer of fluorescence occurred. Based on this, the activity of the kinase was evaluated.
(§5) In this experiment, a 10 μl kinase reaction system was selected, firstly, 2.5 μl kinase (concentration: 1 nM), 2.5 μl peptide substrate (concentration: 2 μM), 2.5 μl ATP (concentration: […]) and 2.5 μl compound were added to each system for reaction for 1 h at room temperature, and then a 5 μl test solution was added for reaction for 1 h at room temperature, then a 5 μl stop buffer was added. A microplate reader (Synergy H1, BioTek, USA) was used to measure fluorescence intensity (emission intensity of coumarin at 445 nm and emission intensity of fluorescein at 520 nm were detected under the stimulation of 400 nm). The inhibitory activity of each compound was calculated, where it was believed that fluorescence intensity of a well not containing the kinase was 100% inhibited.

Another test addresses JAK-2 (Homo sapiens (Human), UniProt O60674). The test can be described thus: Inhibition test on JAK-2 kinase (FRET peptide substrate assay). Conditions: kinase 1 nM, 1 h at room temperature.
Text: as §1, §2, §3, §4, §5

The target of another test is JAK-3 (Homo sapiens (Human), UniProt P52333). The experiment in a line: Inhibition test on JAK-3 kinase (FRET peptide substrate assay). To be noted: kinase 1 nM, 1 h at room temperature; read-out: IC50 (nM) JAK-3.
Text: as §1, §2, §3, §4, §5

JAK-3, sequence (P52333 whole entry): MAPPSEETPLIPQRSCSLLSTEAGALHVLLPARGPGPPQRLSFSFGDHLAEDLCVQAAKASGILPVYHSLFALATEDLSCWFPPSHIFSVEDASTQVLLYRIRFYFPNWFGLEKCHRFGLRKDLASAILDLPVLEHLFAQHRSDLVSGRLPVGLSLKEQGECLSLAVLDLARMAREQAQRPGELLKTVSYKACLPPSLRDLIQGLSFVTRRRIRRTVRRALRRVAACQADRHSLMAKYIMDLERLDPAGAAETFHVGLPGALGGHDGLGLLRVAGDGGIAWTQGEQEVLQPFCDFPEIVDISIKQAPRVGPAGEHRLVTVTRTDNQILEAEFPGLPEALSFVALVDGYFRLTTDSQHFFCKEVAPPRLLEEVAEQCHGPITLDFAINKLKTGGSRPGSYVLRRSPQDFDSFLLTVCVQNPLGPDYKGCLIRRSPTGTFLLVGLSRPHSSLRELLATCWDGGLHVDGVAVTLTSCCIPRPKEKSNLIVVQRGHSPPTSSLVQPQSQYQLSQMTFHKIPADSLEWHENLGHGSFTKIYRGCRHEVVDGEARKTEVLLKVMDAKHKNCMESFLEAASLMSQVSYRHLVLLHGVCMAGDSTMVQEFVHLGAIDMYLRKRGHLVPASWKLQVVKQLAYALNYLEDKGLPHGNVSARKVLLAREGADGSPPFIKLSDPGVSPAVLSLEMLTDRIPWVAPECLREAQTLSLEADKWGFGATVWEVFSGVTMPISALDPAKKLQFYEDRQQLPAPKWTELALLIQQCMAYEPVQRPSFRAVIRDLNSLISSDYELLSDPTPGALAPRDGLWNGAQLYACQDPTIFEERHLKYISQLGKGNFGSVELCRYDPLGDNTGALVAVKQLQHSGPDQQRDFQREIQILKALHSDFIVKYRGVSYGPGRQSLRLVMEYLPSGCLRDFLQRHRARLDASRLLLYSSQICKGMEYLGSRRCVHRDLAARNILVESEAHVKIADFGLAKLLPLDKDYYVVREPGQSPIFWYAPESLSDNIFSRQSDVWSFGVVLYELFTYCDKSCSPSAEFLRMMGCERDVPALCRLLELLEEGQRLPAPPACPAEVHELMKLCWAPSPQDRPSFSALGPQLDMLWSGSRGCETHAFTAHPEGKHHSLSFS
JAK-1, sequence (P23458 whole entry): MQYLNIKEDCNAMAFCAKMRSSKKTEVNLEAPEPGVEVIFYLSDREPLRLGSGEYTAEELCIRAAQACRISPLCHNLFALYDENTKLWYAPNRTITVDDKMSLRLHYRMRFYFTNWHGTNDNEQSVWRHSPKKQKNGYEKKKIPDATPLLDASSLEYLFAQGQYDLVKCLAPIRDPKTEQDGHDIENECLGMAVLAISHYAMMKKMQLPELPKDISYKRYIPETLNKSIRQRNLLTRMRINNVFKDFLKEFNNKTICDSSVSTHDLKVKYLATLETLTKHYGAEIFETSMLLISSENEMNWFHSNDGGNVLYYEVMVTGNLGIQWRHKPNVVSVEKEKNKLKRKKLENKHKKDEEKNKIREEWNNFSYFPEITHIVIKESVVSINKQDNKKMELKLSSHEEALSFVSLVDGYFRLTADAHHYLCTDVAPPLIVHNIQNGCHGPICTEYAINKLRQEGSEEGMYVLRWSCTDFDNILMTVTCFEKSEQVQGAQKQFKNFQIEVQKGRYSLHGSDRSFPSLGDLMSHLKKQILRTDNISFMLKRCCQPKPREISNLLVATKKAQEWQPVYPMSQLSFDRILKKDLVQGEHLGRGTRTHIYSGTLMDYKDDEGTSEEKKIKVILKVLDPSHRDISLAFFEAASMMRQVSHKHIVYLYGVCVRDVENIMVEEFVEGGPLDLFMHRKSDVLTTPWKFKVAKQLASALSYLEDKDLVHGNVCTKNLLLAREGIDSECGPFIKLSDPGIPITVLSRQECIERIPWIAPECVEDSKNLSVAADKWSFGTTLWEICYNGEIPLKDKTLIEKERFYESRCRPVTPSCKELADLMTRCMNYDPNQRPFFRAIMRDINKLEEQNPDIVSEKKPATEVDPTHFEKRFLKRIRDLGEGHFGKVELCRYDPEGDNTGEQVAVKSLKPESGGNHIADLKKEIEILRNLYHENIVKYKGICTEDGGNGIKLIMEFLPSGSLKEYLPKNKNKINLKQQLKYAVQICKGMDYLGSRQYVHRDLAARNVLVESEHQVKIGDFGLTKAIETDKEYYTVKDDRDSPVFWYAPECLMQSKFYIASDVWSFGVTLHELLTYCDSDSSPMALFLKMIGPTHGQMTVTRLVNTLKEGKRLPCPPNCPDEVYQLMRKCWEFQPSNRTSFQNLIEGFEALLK
JAK-2, sequence (O60674 whole entry): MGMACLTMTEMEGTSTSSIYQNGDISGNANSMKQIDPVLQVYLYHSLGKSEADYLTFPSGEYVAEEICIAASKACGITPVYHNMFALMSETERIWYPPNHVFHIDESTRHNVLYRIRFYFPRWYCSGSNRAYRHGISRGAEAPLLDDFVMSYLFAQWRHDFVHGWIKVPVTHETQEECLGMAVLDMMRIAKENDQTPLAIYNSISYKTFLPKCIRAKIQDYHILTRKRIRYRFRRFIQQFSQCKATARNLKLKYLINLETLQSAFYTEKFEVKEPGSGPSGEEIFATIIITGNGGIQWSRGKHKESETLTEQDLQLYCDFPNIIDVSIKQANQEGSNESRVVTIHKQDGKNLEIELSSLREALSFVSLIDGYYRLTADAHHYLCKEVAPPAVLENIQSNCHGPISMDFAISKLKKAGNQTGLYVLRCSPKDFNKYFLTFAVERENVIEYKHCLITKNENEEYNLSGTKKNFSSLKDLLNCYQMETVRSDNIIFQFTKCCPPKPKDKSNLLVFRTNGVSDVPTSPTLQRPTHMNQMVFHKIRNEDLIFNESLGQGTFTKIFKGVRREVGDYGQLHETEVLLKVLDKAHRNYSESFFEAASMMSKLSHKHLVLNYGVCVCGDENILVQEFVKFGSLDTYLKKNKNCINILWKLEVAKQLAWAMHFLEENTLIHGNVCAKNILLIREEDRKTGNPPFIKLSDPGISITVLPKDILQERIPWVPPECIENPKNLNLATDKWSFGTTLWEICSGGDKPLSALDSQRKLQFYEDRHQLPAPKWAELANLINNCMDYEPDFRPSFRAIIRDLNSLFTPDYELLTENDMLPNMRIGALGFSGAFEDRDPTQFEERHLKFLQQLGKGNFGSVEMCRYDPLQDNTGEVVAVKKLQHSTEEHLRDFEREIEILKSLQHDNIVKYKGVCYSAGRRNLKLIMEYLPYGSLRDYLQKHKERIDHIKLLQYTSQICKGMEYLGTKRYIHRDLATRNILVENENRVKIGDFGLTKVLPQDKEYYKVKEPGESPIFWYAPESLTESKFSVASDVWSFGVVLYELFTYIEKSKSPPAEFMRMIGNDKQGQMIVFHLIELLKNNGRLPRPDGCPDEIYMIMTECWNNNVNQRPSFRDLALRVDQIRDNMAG

Regarding `C/C=C/C(=O)Nc1cccc(Cn2ncc3cnc(Nc4cnn(CCO)c4)nc32)c1` [Example 10, N-(3-((6-((1-(2-hydroxyethyl)-1H-pyrazol-4-yl)amino)-1H-pyrazolo[3,4-d]pyrimidin-1-yl)methyl)phenyl)but-2-enamide], the IC50 at JAK-1 came to 940 nM; on JAK-2 it was 960 nM; on JAK-3, 0.7 nM.

For `C=CC(=O)Nc1cccc(Cn2ncc3cnc(Nc4ccc(F)cc4)nc32)c1` [Example 5, N-(3-((6-((4-fluorophenyl)amino)-1H-pyrazolo[3,4-d]pyrimidin-1-yl)methyl)phenyl)acrylamide], the IC50 on JAK-1 was found to be 1580 nM; on JAK-2, 1800 nM; at JAK-3, 3.7 nM.

Regarding `C/C=C/C(=O)Nc1ccc(Cn2ncc3cnc(Nc4cnn(C)c4)nc32)cc1` [Example 23, N-(4-((6-((1-methyl-1H-pyrazol-4-yl)amino)-1H-pyrazolo[3,4-d]pyrimidin-1-yl)methyl)phenyl)but-2-enamide], the IC50 amounted to 940 nM at JAK-1, 697 nM at JAK-2 and 0.1 nM on JAK-3.

In the case of `C/C=C/C(=O)Nc1ccc(Cn2ncc3cnc(Nc4ccccc4)nc32)cc1` [Example 25, N-(4-((6-aniline-1H-pyrazolo[3,4-d]pyrimidin-1-yl)methyl)phenyl)but-2-enamide], the IC50 came out at 2400 nM at JAK-1, 1040 nM at JAK-2 and 1.2 nM at JAK-3.

As to `C=CC(=O)Nc1ccc(Cn2ncc3cnc(Nc4ccccc4)nc32)cc1` [Example 18, N-(4-((6-aniline-1H-pyrazolo[3,4-d]pyrimidin-1-yl)methyl)phenyl)acrylamide], the values for the IC50 on JAK-1, at JAK-2 and on JAK-3 were 1990 nM, 1280 nM and 2.8 nM, respectively.
